Measurements reported in PubChem BioAssay AID330 (DTP/NCI, 2004).
“And” between values parts separate entries of the source, which are not always exact repeats. Equal entries are not always repeated. Inconclusive results and toxic doses are left out.

Tested on: P388 leukemia ip, CD2F1 mice, survival T/C
Test: NCI In Vivo Anticancer Drug Screen. Data for tumor model P388 Leukemia (intraperitoneal) in CD2F1 (CDF1) mice
Conditions: endpoint: median survival time, higher = longer survival
In short: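 Mice carrying the transplanted tumor received test compound or vehicle. Survival was recorded in each group, and the value is the treated-group measurement divided by that of the vehicle-treated control group.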

[1] = dose: 50.0 mg/kg/injection, schedule: Q01DX005 (ip), vehicle: saline with Tween-80
[2] = dose: 60.0 mg/kg/injection, schedule: Q01DX005 (ip), vehicle: Klucel (hydroxypropylcellulose) (HPC)
[3] = dose: 120.0 mg/kg/injection, schedule: Q01DX005 (ip), vehicle: Klucel (hydroxypropylcellulose) (HPC)
[4] = dose: 240.0 mg/kg/injection, schedule: Q01DX005 (ip), vehicle: Klucel (hydroxypropylcellulose) (HPC)
[5] = dose: 25.0 mg/kg/injection, schedule: Q01DX005 (ip), vehicle: Klucel (hydroxypropylcellulose) (HPC)
[6] = dose: 50.0 mg/kg/injection, schedule: Q01DX005 (ip), vehicle: Klucel (hydroxypropylcellulose) (HPC)
[7] = dose: 100.0 mg/kg/injection, schedule: Q01DX005 (ip), vehicle: Klucel (hydroxypropylcellulose) (HPC)
[8] = dose: 200.0 mg/kg/injection, schedule: Q04DX002 (ip), vehicle: saline with Tween-80
[9] = dose: 50.0 mg/kg/injection, schedule: Q01DX009 (ip), vehicle: saline with Tween-80
[10] = dose: 100.0 mg/kg/injection, schedule: Q01DX009 (ip), vehicle: saline with Tween-80
[11] = dose: 200.0 mg/kg/injection, schedule: Q01DX009 (ip), vehicle: saline with Tween-80
[12] = dose: 25.0 mg/kg/injection, schedule: Q01DX005 (ip), vehicle: saline with Tween-80
[13] = dose: 200.0 mg/kg/injection, schedule: Q01DX005 (ip), vehicle: saline with Tween-80
[14] = dose: 50.0 mg/kg/injection, schedule: Q01DX009 (ip), vehicle: saline
[15] = dose: 100.0 mg/kg/injection, schedule: Q01DX009 (ip), vehicle: saline
[16] = dose: 200.0 mg/kg/injection, schedule: Q01DX009 (ip), vehicle: saline

With `c1ccccc1` the T/C (dose: 0.12 % in 0.5 ml injection vol, schedule: Q01DX009 (ip), vehicle: water) was 100 % of control, the T/C (dose: 0.25 % in 0.5 ml injection vol, schedule: Q01DX009 (ip), vehicle: water) was 102 % of control and the T/C (dose: 0.5 % in 0.5 ml injection vol, schedule: Q01DX009 (ip), vehicle: water) was 104 % of control. The T/C (dose: 1.0 % in 0.5 ml injection vol, schedule: Q01DX009 (ip), vehicle: water) was 100 % of control, the T/C (dose: 2.0 % in 0.5 ml injection vol, schedule: Q01DX009 (ip), vehicle: water) was 100 % of control and 102 % of control and the T/C (dose: 4.0 % in 0.5 ml injection vol, schedule: Q01DX009 (ip), vehicle: water) was 99 % of control. For the same compound, the T/C (dose: 8.0 % in 0.5 ml injection vol, schedule: Q01DX009 (ip), vehicle: water) was 100 % of control and the T/C (dose: 16.0 % in 0.5 ml injection vol, schedule: Q01DX009 (ip), vehicle: water) was 95 % of control.
In the case of `Cc1cc(Br)c2nsnc2c1[N+](=O)[O-]`, the T/C [1] is reported as 122 % of control.
In the case of `Cc1cc(C)nc(NS(=O)(=O)c2ccc(NC(=O)NCCCl)cc2)n1`, the T/C (dose: 30.0 mg/kg/injection, schedule: Q01DX005 (ip), vehicle: Klucel (hydroxypropylcellulose) (HPC)) is reported as 106 % of control, the T/C [2] is reported as 107 % of control and the T/C [3] is reported as 100 % of control. For the same compound, the T/C [4] was 114 % of control.
For `CCCCn1c(CCC)nc([N+](=O)[O-])c1Sc1ncn[nH]1`, the T/C [5] was 98 % of control, the T/C [6] was 117 % of control and 118 % of control and the T/C [7] was 114 % of control. For the same compound, the T/C (dose: 200.0 mg/kg/injection, schedule: Q01DX005 (ip), vehicle: Klucel (hydroxypropylcellulose) (HPC)) was 122 % of control and 123 % of control.
`CN(c1ccccc1)C1C2=C(OC(=O)C1(Cl)Cl)c1sc(-c3ccccc3)nc1CC2` (stereo not given) was tested, and the T/C (dose: 12.5 mg/kg/injection, schedule: Q04DX002 (ip), vehicle: saline with Tween-80) was 93 % of control, the T/C (dose: 25.0 mg/kg/injection, schedule: Q04DX002 (ip), vehicle: saline with Tween-80) was 97 % of control and the T/C (dose: 50.0 mg/kg/injection, schedule: Q04DX002 (ip), vehicle: saline with Tween-80) was 93 % of control. The T/C [8] was 86 % of control.
For `COc1ccc(C(NC(N)=O)c2cc3c(cc2OC(C)=O)OCO3)cc1` (stereo not given), the T/C [2] was 98 % of control, the T/C [3] was 92 % of control and the T/C [4] was 93 % of control.
With `COc1cc2c(cc1OC)[N+]([O-])=C(c1ccccc1)C2=O` the T/C [6] was 94 % of control and the T/C [7] was 93 % of control.
For `c1ccc(SCCSCCSc2ccccc2)cc1`, the T/C [9] was 105 % of control, the T/C [10] was 101 % of control and the T/C [11] was 106 % of control.
`COc1ccc(N2C(=O)C(N=Nc3ccc(S(=O)(=O)Nc4ncccn4)cc3)C(=O)N(c3ccccc3)C2=S)cc1` (stereo not given) was tested, and the T/C (dose: 50.0 mg/kg/injection, schedule: Q01DX005 (ip), vehicle: saline) was 103 % of control, the T/C (dose: 100.0 mg/kg/injection, schedule: Q01DX005 (ip), vehicle: saline) was 95 % of control and the T/C (dose: 200.0 mg/kg/injection, schedule: Q01DX005 (ip), vehicle: saline) was 98 % of control.
`O=c1cc(CC(O)c2ccccc2)c2ccccc2[nH]1` (stereo not given) was tested, and the T/C (dose: 100.0 mg/kg/injection, schedule: Q04DX002 (ip), vehicle: saline with Tween-80) was 95 % of control, the T/C [8] was 94 % of control and the T/C (dose: 400.0 mg/kg/injection, schedule: Q04DX002 (ip), vehicle: saline with Tween-80) was 91 % of control.
`Cc1ccnc(NN=O)c1` was tested, and the T/C (dose: 1.5 mg/kg/injection, schedule: Q01DX009 (ip), vehicle: water) was 109 % of control, the T/C (dose: 1.56 mg/kg/injection, schedule: Q01DX009 (ip), vehicle: water) was 100 % of control and the T/C (dose: 3.0 mg/kg/injection, schedule: Q01DX009 (ip), vehicle: water) was 109 % of control. The T/C (dose: 3.12 mg/kg/injection, schedule: Q01DX009 (ip), vehicle: water) was 117 % of control, the T/C (dose: 6.25 mg/kg/injection, schedule: Q01DX009 (ip), vehicle: water) was 159 % of control and the T/C (dose: 12.5 mg/kg/injection, schedule: Q01DX009 (ip), vehicle: water) was 87 % of control.
For `CC(O)CCC(=O)c1ccoc1` (stereo not given), the T/C (dose: 1.87 mg/kg/injection, schedule: Q01DX005 (ip), vehicle: saline) was 97 % of control, the T/C (dose: 3.75 mg/kg/injection, schedule: Q01DX005 (ip), vehicle: saline) was 100 % of control and the T/C (dose: 7.5 mg/kg/injection, schedule: Q01DX005 (ip), vehicle: saline) was 100 % of control and 96 % of control. The T/C (dose: 15.0 mg/kg/injection, schedule: Q01DX005 (ip), vehicle: saline) was 100 % of control and 93 % of control and the T/C (dose: 30.0 mg/kg/injection, schedule: Q01DX005 (ip), vehicle: saline) was 109 % of control.
With `COc1ccc(S(=O)(=O)N/N=C/CN(C)C)cc1` the T/C [12] was 101 % of control, the T/C [1] was 101 % of control and the T/C (dose: 100.0 mg/kg/injection, schedule: Q01DX005 (ip), vehicle: saline with Tween-80) was 101 % of control. For the same compound, the T/C [13] was 99 % of control.
For `CCn1c2ccccc2c2ccc(N=Nc3ccc(N(C)C)cc3)cc21`, the T/C [9] was 111 % of control and 112 % of control and 113 % of control and the T/C [10] was 108 % of control and 118 % of control.
With `C[S+]1C2(C3CC4CC(C3)CC2C4)C12C1CC3CC(C1)CC2C3` (stereo not given) the T/C (dose: 50.0 mg/kg/injection, schedule: Q01DX005 (ip), vehicle: distilled water + alcohol) was 104 % of control and the T/C (dose: 100.0 mg/kg/injection, schedule: Q01DX005 (ip), vehicle: distilled water + alcohol) was 109 % of control.
With `COC1C=C(Br)C(=O)C(C)O1` (stereo not given) the T/C (dose: 100.0 mg/kg/injection, schedule: Q04DX003 (ip), vehicle: Klucel (hydroxypropylcellulose) (HPC)) was 98 % of control and the T/C (dose: 200.0 mg/kg/injection, schedule: Q04DX003 (ip), vehicle: Klucel (hydroxypropylcellulose) (HPC)) was 106 % of control.
For `CC1CC(=O)Nc2ncccc2N1` (stereo not given), the T/C [9] was 94 % of control, the T/C [10] was 94 % of control and the T/C [11] was 94 % of control.
`Cn1c(C(=O)c2cc3ccccc3n2C)cc2ccccc21` was tested, and the T/C [14] was 100 % of control, the T/C [15] was 97 % of control and the T/C [16] was 103 % of control.
`CCN(CC)CCNc1cc(Nc2ccc([N+](=O)[O-])cc2)ccc1OC` was tested, and the T/C (dose: 12.5 mg/kg/injection, schedule: Q01DX005 (ip), vehicle: saline with Tween-80) was 108 % of control, the T/C [12] was 106 % of control and the T/C [1] was 99 % of control. The T/C [13] was 87 % of control.
With `COc1cc(C(=O)O)cc(C(=O)O)c1` the T/C (dose: 6.25 mg/kg/injection, schedule: Q01DX009 (ip), vehicle: saline) was 99 % of control, the T/C (dose: 12.5 mg/kg/injection, schedule: Q01DX009 (ip), vehicle: saline) was 107 % of control and the T/C (dose: 25.0 mg/kg/injection, schedule: Q01DX009 (ip), vehicle: saline) was 100 % of control.
For `CCn1c(=O)c2c(N(C)C)snc2n(CC)c1=O`, the T/C [14] was 96 % of control, the T/C [15] was 107 % of control and the T/C [16] was 110 % of control.
For `C=C[C@]1(C)C=C2C(O)CC3C(C)(C)CCC[C@]3(CO)C2CC1` (stereo not given in full), the T/C (dose: 60.0 mg/kg/injection, schedule: Q01DX005 (ip), vehicle: saline with Tween-80) was 100 % of control, the T/C (dose: 120.0 mg/kg/injection, schedule: Q01DX005 (ip), vehicle: saline with Tween-80) was 97 % of control and the T/C (dose: 240.0 mg/kg/injection, schedule: Q01DX005 (ip), vehicle: saline with Tween-80) was 96 % of control.
In the case of `NC(CSC(c1ccccc1)(c1ccccc1)c1ccc(Cl)cc1)C(=O)O` (stereo not given), the T/C (dose: 33.0 mg/kg/injection, schedule: Q04DX003 (ip), vehicle: saline with Tween-80) is reported as 177 % of control, the T/C (dose: 50.0 mg/kg/injection, schedule: Q04DX003 (ip), vehicle: saline with Tween-80) is reported as 181 % of control and 272 % of control and the T/C (dose: 75.0 mg/kg/injection, schedule: Q04DX003 (ip), vehicle: saline with Tween-80) is reported as 200 % of control. For the same compound, the T/C (dose: 200.0 mg/kg/injection, schedule: Q04DX003 (ip), vehicle: saline with Tween-80) was 100 % of control.
In the case of `CCCCC(SC(CC)(C(N)=O)c1ccccc1)C(=O)O` (stereo not given), the T/C [9] is reported as 108 % of control, the T/C [10] is reported as 105 % of control and the T/C [11] is reported as 106 % of control. The T/C (dose: 400.0 mg/kg/injection, schedule: Q01DX009 (ip), vehicle: saline with Tween-80) was 97 % of control.
With `CCN(CC)CCN(C(=O)C1c2ccccc2Oc2ccccc21)C1CCCCC1` the T/C (dose: 12.5 mg/kg/injection, schedule: Q01DX005 (ip), vehicle: Klucel (hydroxypropylcellulose) (HPC)) was 101 % of control, the T/C [5] was 100 % of control and the T/C [6] was 98 % of control and 92 % of control.
`CCOC(=O)CC(=O)C(OC)OC` was tested, and the T/C [14] was 106 % of control, the T/C [15] was 105 % of control and the T/C [16] was 102 % of control. For the same compound, the T/C (dose: 400.0 mg/kg/injection, schedule: Q01DX009 (ip), vehicle: saline) was 98 % of control.
